Measured values from US11814367B2, “Inhibitors of glycogen synthase 1 (GYS1) and methods of use thereof” (Maze Therapeutics, Inc., priority 2021, dated 2023).

Tests used:
[1] = biological target: hGYS1 enzyme (recombinant hGYS1/GN1 protein) (Homo sapiens (Human), UniProt P13807); experiment: GYS1 coupled enzyme assay (PK/LDH); format: biochemical; settings: hGYS1/GN1 50 nM, UDP-Glucose 0.8 mM, G6P 1 mM; geometric mean of at least 2 runs
[2] = system: hGYS1 enzyme / glycogen synthesis in HeLa cells; experiment: GYS1 cell based assay (glycogen synthesis, Glucose-glo); design: species or system human; settings: Homo sapiens, HeLa, 24 h, 24 h incubation, 20 mM glucose, geometric mean of at least 2 runs
How it was run: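 HeLa cells starved 24 h in medium containing only 1× Glutamax were plated onto compound in medium with 20 mM glucose (1% DMSO final) for 24 h, 37 °C, 5% CO2. Acid lysates were Tris-quenched, glucoamylase-digested (pH 5.3, 1 h, 37 °C) and read by Glucose-glo luminescence. IC50 came from Hill fits, as geometric mean of ≥2 runs.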

[3] = biological target: hGYS2 enzyme (recombinant hGYS2/GN1 protein) (Homo sapiens (Human), UniProt P54840); experiment: GYS2 coupled enzyme assay (PK/LDH); format: biochemical; settings: geometric mean of at least 2 assay runs on separate days, read-out: Avg_IC50
Chain of hGYS2 enzyme (recombinant hGYS2/GN1 protein) (P54840 whole entry): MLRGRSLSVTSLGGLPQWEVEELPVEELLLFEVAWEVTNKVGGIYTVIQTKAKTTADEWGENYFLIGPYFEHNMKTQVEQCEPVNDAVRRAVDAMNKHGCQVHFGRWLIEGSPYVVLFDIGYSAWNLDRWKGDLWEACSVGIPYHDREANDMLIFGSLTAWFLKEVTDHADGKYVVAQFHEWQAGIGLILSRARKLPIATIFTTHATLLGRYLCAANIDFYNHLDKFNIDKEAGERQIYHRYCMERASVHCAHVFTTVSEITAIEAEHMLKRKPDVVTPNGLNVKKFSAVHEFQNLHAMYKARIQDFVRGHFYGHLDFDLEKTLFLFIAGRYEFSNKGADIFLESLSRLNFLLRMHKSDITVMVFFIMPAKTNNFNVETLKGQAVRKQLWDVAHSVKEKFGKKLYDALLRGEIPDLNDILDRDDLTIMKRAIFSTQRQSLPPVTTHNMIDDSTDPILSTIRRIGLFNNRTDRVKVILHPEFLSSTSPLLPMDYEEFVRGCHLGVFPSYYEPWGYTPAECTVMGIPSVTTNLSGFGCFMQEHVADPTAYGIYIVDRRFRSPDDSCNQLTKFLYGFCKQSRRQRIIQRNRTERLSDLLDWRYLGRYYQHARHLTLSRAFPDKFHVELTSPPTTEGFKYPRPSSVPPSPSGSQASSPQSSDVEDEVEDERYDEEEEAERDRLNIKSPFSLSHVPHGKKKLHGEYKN
Chain of hGYS2 enzyme (recombinant hGYS2/GN1 protein) (P46976 whole entry partner): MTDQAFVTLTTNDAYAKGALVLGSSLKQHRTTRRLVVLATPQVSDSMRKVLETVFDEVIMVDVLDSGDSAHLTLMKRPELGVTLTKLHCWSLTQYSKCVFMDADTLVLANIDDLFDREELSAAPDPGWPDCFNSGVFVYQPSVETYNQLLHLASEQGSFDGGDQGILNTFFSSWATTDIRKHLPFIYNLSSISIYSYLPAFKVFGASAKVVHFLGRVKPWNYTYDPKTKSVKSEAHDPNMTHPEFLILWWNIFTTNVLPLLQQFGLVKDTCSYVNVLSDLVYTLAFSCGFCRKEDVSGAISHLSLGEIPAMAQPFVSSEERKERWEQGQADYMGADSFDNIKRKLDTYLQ
How it was run: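 Recombinant hGYS2/GN1 (200 nM) with 2 mM UDP-glucose, 0.2% rabbit liver glycogen, 2 mM glucose-6-phosphate; UDP coupled via PK/LDH (2 mM PEP, 0.6 mM NADH). Buffer 50 mM Tris pH 7.5, 2 mM MgCl2, 100 mM KCl, 2.5% DMSO. A340 slope over 10 min; IC50 from Hill fit of duplicates.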

Chain of hGYS1 enzyme (recombinant hGYS1/GN1 protein) (P13807 whole entry): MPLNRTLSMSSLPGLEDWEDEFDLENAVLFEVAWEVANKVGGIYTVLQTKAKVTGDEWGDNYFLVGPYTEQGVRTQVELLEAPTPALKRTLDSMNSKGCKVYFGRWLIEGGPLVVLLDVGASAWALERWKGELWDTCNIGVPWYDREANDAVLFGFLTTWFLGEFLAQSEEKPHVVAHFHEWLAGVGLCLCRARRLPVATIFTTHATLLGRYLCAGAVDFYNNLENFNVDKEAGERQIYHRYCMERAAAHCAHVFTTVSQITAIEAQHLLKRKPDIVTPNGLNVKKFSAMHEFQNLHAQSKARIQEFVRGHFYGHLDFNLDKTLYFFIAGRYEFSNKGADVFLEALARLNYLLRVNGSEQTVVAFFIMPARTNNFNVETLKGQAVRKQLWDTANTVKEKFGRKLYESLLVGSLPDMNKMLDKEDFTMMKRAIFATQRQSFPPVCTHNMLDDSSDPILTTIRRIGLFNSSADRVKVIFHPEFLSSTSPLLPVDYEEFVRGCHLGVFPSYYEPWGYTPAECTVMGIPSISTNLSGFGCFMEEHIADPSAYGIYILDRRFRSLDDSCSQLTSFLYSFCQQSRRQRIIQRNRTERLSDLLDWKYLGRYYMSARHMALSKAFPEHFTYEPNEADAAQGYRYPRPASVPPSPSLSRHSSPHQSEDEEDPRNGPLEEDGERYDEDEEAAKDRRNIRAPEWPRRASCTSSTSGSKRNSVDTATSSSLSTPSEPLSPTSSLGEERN
Chain of hGYS1 enzyme (recombinant hGYS1/GN1 protein) (P46976 whole entry partner): as the sequence (P46976 whole entry partner) above

| Compound | IC50 [1] [nM] | IC50 [2] [nM] | IC50 [3] [nM] |
| --- | --- | --- | --- |
| CC1(c2ccc([C@@H](NC(=O)[C@@H]3C[C@@H](F)CN3C(=O)Cc3cnn[nH]3)c3ccccc3)cc2F)CCC1 [Compound 681, (2S,4R)-4-fluoro-N-[(S)-[3-fluoro-4-(1-methylcyclobutyl)phenyl](phenyl)methyl]-1-[2-(1H-1,2,3-triazol-5-yl)acetyl]pyrrolidine-2-carboxamide] | 30 | 430 | > 100000 |
| CC(C)(C)c1ccc([C@@H](NC(=O)[C@@H]2C[C@@H](F)CN2C(=O)Cc2cnn[nH]2)c2ccccc2)cc1F [Compound 685, (2S,4R)-N-[(S)-(4-tert-butyl-3-fluorophenyl)(phenyl)methyl]-4-fluoro-1-[2-(1H-1,2,3-triazol-5-yl)acetyl]pyrrolidine-2-carboxamide] | 204 | 2710 | > 100000 |
| CC(C)c1ccc([C@@H](NC(=O)[C@@H]2C[C@@H](F)CN2C(=O)Cc2cnn[nH]2)c2cccc(-c3ccn[nH]3)c2)nc1F [Compound 686, (2S,4R)-1-(2-(1H-1,2,3-triazol-5-yl)acetyl)-N—((S)-(3-(1H-pyrazol-5-yl)phenyl)(6-fluoro-5-isopropylpyridin-2-yl)methyl)-4-fluoropyrrolidine-2-carboxamide] | 13 | 640 | > 100000 |
| CC(C)c1ccc([C@@H](NC(=O)[C@@H]2C[C@@H](F)CN2C(=O)Cc2nn(C)c(=O)n2C)c2ccccc2)nc1 [Compound 710, (2S,4R)-1-[2-(1,4-dimethyl-5-oxo-4,5-dihydro-1H-1,2,4-triazol-3-yl)acetyl]-4-fluoro-N-[(S)-phenyl[5-(propan-2-yl)pyridin-2-yl]methyl]pyrrolidine-2-carboxamide] | 146 | 2340 | > 100000 |
| CC(C)c1ccc([C@@H](NC(=O)[C@@H]2C[C@@H](F)CN2C(=O)Cn2cc(N3CCC3)nn2)c2ccccc2)nc1 [Compound 711, (2S,4R)-1-{2-[4-(azetidin-1-yl)-1H-1,2,3-triazol-1-yl]acetyl}-4-fluoro-N-[(S)-phenyl[5-(propan-2-yl)pyridin-2-yl]methyl]pyrrolidine-2-carboxamide] | 30 | 630 | > 100000 |
| Cn1c(CC(=O)N2C[C@H](F)C[C@H]2C(=O)N[C@@H](c2ccccc2)c2ccc(C3CC3)c(F)n2)noc1=O [Compound 719, (2S,4R)-N-[(S)-(5-cyclopropyl-6-fluoropyridin-2-yl)(phenyl)methyl]-4-fluoro-1-[2-(4-methyl-5-oxo-4,5-dihydro-1,2,4-oxadiazol-3-yl)acetyl]pyrrolidine-2-carboxamide] | 254 | 2220 | > 100000 |
| Cn1nc(CC(=O)N2C[C@H](F)C[C@H]2C(=O)N[C@@H](c2ccccc2)c2ccc(C3CC3)c(F)n2)n(C)c1=O [Compound 722, (2S,4R)-N-[(S)-(5-cyclopropyl-6-fluoropyridin-2-yl)(phenyl)methyl]-1-[2-(1,4-dimethyl-5-oxo-4,5-dihydro-1H-1,2,4-triazol-3-yl)acetyl]-4-fluoropyrrolidine-2-carboxamide] | 85 | 1450 | > 100000 |
| Cc1cc(CC(=O)N2C[C@H](F)C[C@H]2C(=O)N[C@@H](c2ccccc2)c2ccc(C3CC3)c(F)n2)c[nH]c1=O [Compound 732, (2S,4R)-N-[(S)-(5-cyclopropyl-6-fluoropyridin-2-yl)(phenyl)methyl]-4-fluoro-1-[2-(5-methyl-6-oxo-1,6-dihydropyridin-3-yl)acetyl]pyrrolidine-2-carboxamide] | 27 | 1370 | > 100000 |
| CCn1c(=O)c(C)cn(CC(=O)N2C[C@H](F)C[C@H]2C(=O)N[C@@H](c2ccccc2)c2ccc(C3CC3)c(F)n2)c1=O [Compound 733, (2S,4R)-N-[(S)-(5-cyclopropyl-6-fluoropyridin-2-yl)(phenyl)methyl]-1-[2-(3-ethyl-5-methyl-2,4-dioxo-1,2,3,4-tetrahydropyrimidin-1-yl)acetyl]-4-fluoropyrrolidine-2-carboxamide] | 5 | 150 | > 100000 |
| CCn1cc(CC(=O)N2C[C@H](F)C[C@H]2C(=O)N[C@@H](c2ccccc2)c2ccc(C3CC3)c(F)n2)ccc1=O [Compound 736, (2S,4R)-N-[(S)-(5-cyclopropyl-6-fluoropyridin-2-yl)(phenyl)methyl]-1-[2-(1-ethyl-6-oxo-1,6-dihydropyridin-3-yl)acetyl]-4-fluoropyrrolidine-2-carboxamide] | 20 | 780 | > 100000 |
| CC(C)c1ccc([C@@H](NC(=O)[C@@H]2C[C@@H](F)CN2S(=O)(=O)Cc2cnn[nH]2)c2ccccc2)cc1F [Compound 772, (2S,4R)-4-fluoro-N-[(S)-[3-fluoro-4-(propan-2-yl)phenyl](phenyl)methyl]-1-[(1H-1,2,3-triazol-5-yl)methanesulfonyl] pyrrolidine-2-carboxamide] | 356 | 4530 | > 100000 |

The next lines start with the values.

| IC50 [1] [nM] | IC50 [2] [nM] | IC50 [3] [nM] | Compound |
| --- | --- | --- | --- |
| 46 | 720 | > 100000 | O=C(N[C@@H](c1ccccc1)c1ccc(C2CC2)c(F)n1)[C@@H]1C[C@@H](F)CN1C(=O)Cn1cccn1 [Compound 723, (2S,4R)-N-[(S)-(5-cyclopropyl-6-fluoropyridin-2-yl)(phenyl)methyl]-4-fluoro-1-[2-(1H-pyrazol-1-yl)acetyl]pyrrolidine-2-carboxamide] |
| 34 | 630 | > 100000 | Cc1ccnn1CC(=O)N1C[C@H](F)C[C@H]1C(=O)N[C@@H](c1ccccc1)c1ccc(C2CC2)c(F)n1 [Compound 724, (2S,4R)-N-[(S)-(5-cyclopropyl-6-fluoropyridin-2-yl)(phenyl)methyl]-4-fluoro-1-[2-(5-methyl-1H-pyrazol-1-yl)acetyl]pyrrolidine-2-carboxamide] |
| 15 | 310 | > 100000 | O=C(N[C@@H](c1ccccc1)c1ccc(C2CC2)c(F)n1)[C@@H]1C[C@@H](F)CN1C(=O)Cn1nccc1C(F)F [Compound 725, (2S,4R)-N-[(S)-(5-cyclopropyl-6-fluoropyridin-2-yl)(phenyl)methyl]-1-{2-[5-(difluoromethyl)-1H-pyrazol-1-yl]acetyl}-4-fluoropyrrolidine-2-carboxamide] |
| 30 | 540 | > 100000 | O=C(N[C@@H](c1ccccc1)c1ccc(C2CC2)c(F)n1)[C@@H]1C[C@@H](F)CN1C(=O)Cn1cc(N2CCC2)nn1 [Compound 726, (2S,4R)-1-{2-[4-(azetidin-1-yl)-1H-1,2,3-triazol-1-yl]acetyl}-N-[(S)-(5-cyclopropyl-6-fluoropyridin-2-yl)(phenyl)methyl]-4-fluoropyrrolidine-2-carboxamide] |
| 17 | 910 | > 100000 | O=C(N[C@@H](c1ccccc1)c1ccc(C2CC2)c(F)n1)[C@@H]1C[C@@H](F)CN1C(=O)Cn1ccc(=O)[nH]c1=O [Compound 727, (2S,4R)-N-[(S)-(5-cyclopropyl-6-fluoropyridin-2-yl)(phenyl)methyl]-1-[2-(2,4-dioxo-1,2,3,4-tetrahydropyrimidin-1-yl)acetyl]-4-fluoropyrrolidine-2-carboxamide] |
| 36 | 790 | > 100000 | O=C(N[C@@H](c1ccccc1)c1ccc(C2CC2)c(F)n1)[C@@H]1C[C@@H](F)CN1C(=O)Cn1cc(C(F)(F)F)cn1 [Compound 728, (2S,4R)-N-[(S)-(5-cyclopropyl-6-fluoropyridin-2-yl)(phenyl)methyl]-4-fluoro-1-{2-[4-(trifluoromethyl)-1H-pyrazol-1-yl]acetyl}pyrrolidine-2-carboxamide] |
| 39 | 710 | > 100000 | O=C(N[C@@H](c1ccccc1)c1ccc(C2CC2)c(F)n1)[C@@H]1C[C@@H](F)CN1C(=O)Cn1ccc(C(F)F)n1 [Compound 729, (2S,4R)-N-[(S)-(5-cyclopropyl-6-fluoropyridin-2-yl)(phenyl)methyl]-1-{2-[3-(difluoromethyl)-1H-pyrazol-1-yl]acetyl}-4-fluoropyrrolidine-2-carboxamide] |
| 66 | 1620 | > 100000 | O=C(N[C@@H](c1ccccc1)c1ccc(C2CC2)c(F)n1)[C@@H]1C[C@@H](F)CN1C(=O)Cc1ccc[nH]c1=O [Compound 731, (2S,4R)-N-[(S)-(5-cyclopropyl-6-fluoropyridin-2-yl)(phenyl)methyl]-4-fluoro-1-[2-(2-oxo-1,2-dihydropyridin-3-yl)acetyl]pyrrolidine-2-carboxamide] |
| 26 | 1730 | > 100000 | O=C(N[C@@H](c1ccccc1)c1ccc(C2CC2)c(F)n1)[C@@H]1C[C@@H](F)CN1C(=O)Cc1ccc(=O)[nH]c1 [Compound 734, (2S,4R)-N-[(S)-(5-cyclopropyl-6-fluoropyridin-2-yl)(phenyl)methyl]-4-fluoro-1-[2-(6-oxo-1,6-dihydropyridin-3-yl)acetyl]pyrrolidine-2-carboxamide] |
| 5 | 270 | > 100000 | CCn1c(=O)ccn(CC(=O)N2C[C@H](F)C[C@H]2C(=O)N[C@@H](c2ccccc2)c2ccc(C3CC3)c(F)n2)c1=O [Compound 735, (2S,4R)-N-[(S)-(5-cyclopropyl-6-fluoropyridin-2-yl)(phenyl)methyl]-1-[2-(3-ethyl-2,4-dioxo-1,2,3,4-tetrahydropyrimidin-1 yl)acetyl]-4-fluoropyrrolidine-2-carboxamide] |
